Values joined by “and” are separate entries in the source; they are usually repeats but may differ in a detail not shown here. Equal values may be shown once.

The test can be described thus: In vitro binding affinity against alpha-2D adrenergic receptor of male Wistar rat.
Turning to `CC(c1cnc[nH]1)c1sccc1Br` (centres undefined), the Ki is 0.96 nM and 0.18 nM. The result for `Cc1ccsc1C(C)c1cnc[nH]1` (centres undefined) reads 0.78 nM and 2.1 nM. With `Cc1cc(Cc2cnc[nH]2)c(C)s1` the figure was 0.69 nM; with `CCc1cc(Cc2cnc[nH]2)c(CC)s1`, 0.4 nM. As to `c1ccc2sc(Cc3cnc[nH]3)cc2c1`, the inhibition constant Ki was found to be 1.1 nM. The result for `Cc1csc(Cc2cnc[nH]2)c1C` reads 0.17 nM; that for `c1ccc2c(Cc3cnc[nH]3)csc2c1`, 0.09 nM; that for `Cc1csc(C)c1Cc1cnc[nH]1`, 0.1 nM. With `Cc1cscc1C(C)c1cnc[nH]1` (centres undefined) the figure was 0.39 nM; with `Brc1ccsc1Cc1cnc[nH]1`, 0.35 nM.

Consider `Cc1csc(C(C)c2cnc[nH]2)c1C` (centres undefined), for which the Ki turned out to be 0.75 nM. The result for `CCC(c1cnc[nH]1)c1cscc1C` (centres undefined) reads 0.97 nM; that for `Clc1cc(Cc2cnc[nH]2)c(Cl)s1`, 0.088 nM. The result for `COC(c1cnc[nH]1)c1sccc1Br` (centres undefined) reads 39 nM. With `Cc1sccc1Cc1cnc[nH]1` the figure was 0.44 nM; with `Cc1sccc1C(C)c1cnc[nH]1` (centres undefined), 2.3 nM. Take `Cc1cscc1Cc1cnc[nH]1`: the Ki stood at 0.47 nM. The result for `c1ncc(Cc2ccsc2)[nH]1` reads 3.1 nM; that for `c1ncc(Cc2cc3c(s2)CCCC3)[nH]1`, 3.7 nM; that for `CCc1cscc1Cc1cnc[nH]1`, 0.29 nM.

The molecule `Cc1ccsc1Cc1cnc[nH]1` returned a Ki of 0.45 nM.

In the case of `CC(c1cnc[nH]1)c1cscc1Br` (centres undefined), the Ki stood at 0.08 nM. The result for `Brc1csc(Cc2cnc[nH]2)c1Br` reads 0.07 nM. In turn, `CCc1sccc1Cc1cnc[nH]1` yielded an inhibitory constant (Ki) of 0.07 nM. With `c1csc(Cc2cnc[nH]2)c1` the figure was 8.7 nM. The result for `Cc1ccc(Cc2cnc[nH]2)s1` reads 3.6 nM; that for `COC(c1cnc[nH]1)c1cscc1C` (centres undefined), 15.9 nM.

Take `Cc1ccsc1C1(c2cnc[nH]2)CC1`: the affinity, expressed as Ki, was 1000 nM.

Regarding `CCc1cscc1C(C)c1cnc[nH]1` (centres undefined), the affinity corresponds to a Ki of 0.28 nM. The result for `Brc1cscc1Cc1cnc[nH]1` reads 0.23 nM. For the molecule `CC(C)c1cc(Cc2cnc[nH]2)c(C(C)C)s1`, the Ki is 12 nM. With `CCC(c1cnc[nH]1)c1sccc1C` (centres undefined) the figure was 8.3 nM; with `CC(c1cnc[nH]1)c1scc(Br)c1Br` (centres undefined), 0.43 nM. With `Cc1cccc([C@H](C)c2cnc[nH]2)c1C` [4-[(1S)-1-(2,3-dimethylphenyl)ethyl]-1H-imidazole] the figure was 0.015 nM.

The Ki is the equilibrium dissociation constant of an inhibitor or competing ligand from its target.

For the origin of these results see BindingDB's records for doi:10.1021/jm0003891 (The R. W. Johnson Pharmaceutical Research Institute, 2001).
